The results in this text go back to patent US8586588B2, “Aryl pyridazinone derivatives and their use as H3 receptor ligands” (Cephalon, Inc., priority 2006, dated 2013).

Like-named read-outs stand apart in the source and are kept apart here.

The target in assay [1] is T1, human H3 receptor (Homo sapiens, UniProt Q9Y5N1).
T1 construct: expressed in transfected cells
In words: Human H3 radioligand binding ([3H]-N-alpha-methylhistamine, CHO cell membranes, SPA). To be noted: binding constant as letter class. The procedure, abridged: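 Scintillation proximity format: bead-proximal [3H]-N-alpha-methylhistamine (approximately 1 nM final) bound to human H3 receptor in CHO membranes was counted after 4 h at room temperature, light-protected. Buffer was pH 7.4 Tris/MgCl2/BSA; test compounds spanned 0.01 nM-30 μM; 10 μM clobenpropit set non-specific binding.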

The target of assay [2] is T2, rat histamine H3 receptor (Rattus norvegicus, UniProt Q9QYN8).
T2 construct: encoding the entire 445-amino-acid rat histamine H3 receptor; expressed in transfected cells
T2 sequence (Q9QYN8 whole entry): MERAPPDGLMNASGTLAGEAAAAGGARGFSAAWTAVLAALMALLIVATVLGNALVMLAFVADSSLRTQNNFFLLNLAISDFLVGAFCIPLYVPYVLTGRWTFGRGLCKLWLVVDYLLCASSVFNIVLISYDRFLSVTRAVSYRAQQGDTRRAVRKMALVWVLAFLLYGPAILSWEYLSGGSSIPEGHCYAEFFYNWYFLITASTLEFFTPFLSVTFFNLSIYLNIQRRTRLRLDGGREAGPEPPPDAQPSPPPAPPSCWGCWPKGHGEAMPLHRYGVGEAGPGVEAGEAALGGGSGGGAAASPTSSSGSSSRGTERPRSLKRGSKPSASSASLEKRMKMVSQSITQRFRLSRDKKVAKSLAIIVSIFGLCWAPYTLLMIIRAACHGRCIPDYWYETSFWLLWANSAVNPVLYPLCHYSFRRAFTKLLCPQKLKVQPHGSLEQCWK
The experiment in a line: Rat H3 radioligand binding ([3H]-N-alpha-methylhistamine, CHO-A3 cell membranes, SPA). The conditions noted are these: binding constant as letter class. The method, boiled down: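 Scintillation proximity displacement of about 1 nM [3H]-N-alpha-methylhistamine, test compound 0.01 nM-30 μM, 4 h, room temperature, in the dark. Receptor source: rat H3 stably transfected into CHO-A3 cells, 10 μg membrane protein, Tris-HCl pH 7.4/MgCl2/BSA buffer. Nonspecific binding defined by 10 μM clobenpropit.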

T1 sequence (Q9Y5N1 whole entry): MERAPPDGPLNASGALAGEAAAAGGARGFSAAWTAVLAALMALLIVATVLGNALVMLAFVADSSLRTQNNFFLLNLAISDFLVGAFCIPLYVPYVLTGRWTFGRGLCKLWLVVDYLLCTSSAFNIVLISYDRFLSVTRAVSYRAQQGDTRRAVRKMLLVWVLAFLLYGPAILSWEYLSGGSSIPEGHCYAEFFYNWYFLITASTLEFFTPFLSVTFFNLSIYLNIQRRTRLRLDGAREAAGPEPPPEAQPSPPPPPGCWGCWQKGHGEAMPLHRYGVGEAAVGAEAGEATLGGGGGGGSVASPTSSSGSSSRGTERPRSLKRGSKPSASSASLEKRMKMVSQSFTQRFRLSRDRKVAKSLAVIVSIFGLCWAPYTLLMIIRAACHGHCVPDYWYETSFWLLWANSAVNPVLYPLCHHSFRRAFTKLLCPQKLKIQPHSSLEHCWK

As for `CC(C)N1CCC(COc2ccc(-c3ccc(=O)n(C)n3)cc2)CC1` [Example 68, 6-[4-(1-Isopropyl-piperidin-4-ylmethoxy)-phenyl]-2-methyl-2H-pyridazin-3-one], the Ki was 0.0001 to 0.1 µM in assay [1] (Table A) and 0.101 to 0.5 µM in assay [2] (Table A, read-out: Rat H3 Ki).

With `Cc1onc2c(=O)[nH]nc(-c3ccc(OC4CCN(C5CCC5)CC4)cc3)c12` [Example 205, 4-[4-(1-Cyclobutyl-piperidin-4-yloxy)-phenyl]-3-methyl-6H-isoxazolo[3,4-d]pyridazin-7-one], the Ki in assay [1] (Table B) was 0.101 to 0.5 µM; in assay [2] (Table B, read-out: rat H3 Ki), 0.101 to 0.5 µM.

For the compound `COC[C@@H]1CCCN1CCCOc1ccc(-c2nn(C(C)C)c(=O)c3ccsc23)cc1` [Example 26, 5-Isopropyl-7-{4-[3-((S)-2-methoxymethyl-pyrrolidin-1-yl)propoxy]-phenyl}-5H-thieno[2,3-d]pyridazin-4-one], the Ki in assay [1] (Table A) is 0.0001 to 0.1 µM; in assay [2] (Table A, read-out: Rat H3 Ki), over 1 µM.

As to `C[C@@H]1CCCN1CCCOc1ccc(C2=NNC(=O)C(c3ccccn3)C2)cc1` (stereo partly drawn) [Example 216, 6-{4-[3-((R)-2-Methyl-pyrrolidin-1-yl)-propoxy]-phenyl}-4-pyridin-2-yl-4,5-dihydro-2H-pyridazin-3-one], the Ki was 0.0001 to 0.1 µM in assay [1] (Table B) and 0.0001 to 0.1 µM in assay [2] (Table B, read-out: rat H3 Ki).

For `CC(C)n1nc(-c2ccc(OCCCN3CCCC(C)(C)C3)cc2)c2sccc2c1=O` [Example 25, 7-{4-[3-(3,3-Dimethyl-piperidin-1-yl)-propoxy]-phenyl}-5-isopropyl-5H-thieno[2,3-d]pyridazin-4-one], the Ki in assay [1] (Table A) is 0.101 to 0.5 µM; in assay [2] (Table A, read-out: Rat H3 Ki) it was over 1 µM.

For `Cn1nc(-c2ccc(OC3CCN(C4CCC4)CC3)cc2)ccc1=O` [Example 74], the Ki in assay [1] (Table A) lay within 0.0001 to 0.1 µM; in assay [2] (Table A, read-out: Rat H3 Ki) it was 0.0001 to 0.1 µM.

`C[C@@H]1CCCN1CCCOc1ccc(C2=NN(C)C(=O)CC2)cc1` [Example 16, 2-Methyl-6-{4-[3-((R)-2-methyl-pyrrolidin-1-yl)-propoxy]-phenyl}-4,5-dihydro-2H-pyridazin-3-one]: the Ki in assay [1] (Table A) lay in the range of 0.0001 to 0.1 µM; in assay [2] (Table A, read-out: Rat H3 Ki), 0.0001 to 0.1 µM.

As to `O=c1cc(-c2ccc(OCCCN3CCCCCC3)cc2)cnn1-c1ccccn1` [Example 96, 5-[4-(3-Azepan-1-yl-propoxy)-phenyl]-2-pyridin-2-yl-2H-pyridazin-3-one], the inhibitory constant (Ki) lay in the range of 0.0001 to 0.1 µM in assay [1] (Table B) and 0.0001 to 0.1 µM in assay [2] (Table B, read-out: rat H3 Ki).

For the compound `C[C@@H]1CCCN1CCCOc1ccc(-c2cc(Cc3ccccc3)c(=O)n(C)n2)cc1` [Example 45, 4-Benzyl-2-methyl-6-{4-[3-((R)-2-methyl-pyrrolidin-1-yl)-propoxy]-phenyl}-2H-pyridazin-3-one], the Ki in assay [1] (Table A) was 0.0001 to 0.1 µM; in assay [2] (Table A, read-out: Rat H3 Ki), 0.0001 to 0.1 µM.

As to `C[C@@H]1CCCN1CCCOc1ccc(-n2nc(C3CC3)ccc2=O)cc1` [Example 262, 6-Cyclopropyl-2-{4-[3-((R)-2-methyl-pyrrolidin-1-yl)-propoxy]-phenyl}-2H-pyridazin-3-one], the inhibition constant (Ki) in assay [1] (Table B) lay in the range of 0.0001 to 0.1 µM; in assay [2] (Table B, read-out: rat H3 Ki) it was 0.101 to 0.5 µM.

Take `O=c1ccc(-c2ccc(OCCCN3CCCCC3)c(F)c2)nn1-c1ccccc1` [Example 10, 6-[3-Fluoro-4-(3-piperidin-1-yl-propoxy)-phenyl]-2-phenyl-2H-pyridazin-3-one]: the Ki fell in the range of 0.0001 to 0.1 µM in assay [1] (Table A) and 0.101 to 0.5 µM in assay [2] (Table A, read-out: Rat H3 Ki).

Consider `COCn1ncc(-c2ccc(OCCCN3CCC[C@H]3C)cc2)c(OC)c1=O` [Example 235, 4-Methoxy-2-methoxymethyl-5-{4-[3-((R)-2-methyl-pyrrolidin-1-yl)-propoxy]-phenyl}-2H-pyridazin-3-one], for which the Ki was in the range of 0.0001 to 0.1 µM in assay [1] (Table B) and 0.0001 to 0.1 µM in assay [2] (Table B, read-out: rat H3 Ki).

In the case of `CC1CC(c2ccc(OCCCN3CCC[C@H]3C)cc2)=NNC1=O` (stereo partly drawn) [Example 121, 4-Methyl-6-{4-[3-((R)-2-methyl-pyrrolidin-1-yl)-propoxy]-phenyl}-4,5-dihydro-2H-pyridazin-3-one], the Ki in assay [1] (Table B) was in the range of 0.0001 to 0.1 µM; in assay [2] (Table B, read-out: rat H3 Ki), 0.0001 to 0.1 µM.

For `CCCn1nc(-c2ccc(OCCCN3[C@H](C)CC[C@H]3C)cc2)c2sccc2c1=O` [Example 33, 7-{4-[3-((2R,5R)-2,5-Dimethyl-pyrrolidin-1-yl)-propoxy]-phenyl)-5-propyl-5H-thieno[2,3-d]pyridazin-4-one], the Ki in assay [1] (Table A) is 0.0001 to 0.1 µM; in assay [2] (Table A, read-out: Rat H3 Ki), 0.101 to 0.5 µM.

On to `C[C@@H]1CCCN1CCCOc1ccc(-c2ccc(=O)n(-c3ccccn3)n2)cc1` [Example 215, 6-{4-[3-((R)-2-Methyl-pyrrolidin-1-yl)-propoxy]-phenyl}-2-pyridin-2-yl-2H-pyridazin-3-one], for which the Ki was 0.0001 to 0.1 µM in assay [1] (Table B) and 0.0001 to 0.1 µM in assay [2] (Table B, read-out: rat H3 Ki).

Regarding `Cn1nc(-c2ccc(OCCCN3CCCC3)cc2)c2ccccc2c1=O` [Example 52, 2-Methyl-4-[4-(3-pyrrolidin-1-yl-propoxy)-phenyl]-2H-phthalazin-1-one], the Ki in assay [1] (Table A) was 0.0001 to 0.1 µM; in assay [2] (Table A, read-out: Rat H3 Ki), 0.0001 to 0.1 µM.

`CC1CC(=O)NN=C1c1ccc(OCCCN2CCC[C@H]2C)cc1` (mixture of isomers) [Example 194, 5-Methyl-6-{4-[3-((R)-2-methyl-pyrrolidin-1-yl)-propoxy]-phenyl}-4,5-dihydro-2H-pyridazin-3-one]: the Ki in assay [1] (Table B) is 0.0001 to 0.1 µM; in assay [2] (Table B, read-out: rat H3 Ki), 0.0001 to 0.1 µM.

Turning to `CC1CCC(C)N1CCCOc1ccc(-c2nn(C(C)C)c(=O)c3ccsc23)cc1` (stereo not shown) [Example 23, 7-{4-[3-(2,5-Dimethyl-pyrrolidin-1-yl)-propoxy]-phenyl}-5-isopropyl-5H-thieno[2,3-d]pyridazin-4-one], the Ki in assay [1] (Table A) lay within 0.0001 to 0.1 µM; in assay [2] (Table A, read-out: Rat H3 Ki), 0.101 to 0.5 µM.

Take `CC1CC(=O)N(c2ccccn2)N=C1c1ccc(OC2CCN(C3CCC3)CC2)cc1` (stereo not shown) [Example 193, 6-[4-(1-Cyclobutyl-piperidin-4-yloxy)-phenyl]-5-methyl-2-pyridin-2-yl-4,5-dihydro-2H-pyridazin-3-one]: the Ki in assay [1] (Table B) was 0.0001 to 0.1 µM; in assay [2] (Table B, read-out: rat H3 Ki), 0.0001 to 0.1 µM.

With `CC(C)n1nc2c(cc1=O)CCc1cc(OCCCN3CCCCC3)ccc1-2` [Example 78, 2-Isopropyl-8-(3-piperidin-1-yl-propoxy)-5,6-dihydro-2H-benzo[h]cinnolin-3-one], the Ki in assay [1] (Table A) fell in the range of 0.0001 to 0.1 µM; in assay [2] (Table A, read-out: Rat H3 Ki), 0.0001 to 0.1 µM.

As for `C[C@@H]1CCCN1CCCOc1ccc(-c2ccc(=O)n(-c3cc(Cl)cc(Cl)c3)n2)cc1` [Example 9, 2-(3,5-Dichloro-phenyl)-6-{4-[3-((R)-2-methyl-pyrrolidin-1-yl)-propoxy]-phenyl}-2H-pyridazin-3-one], the Ki in assay [1] (Table A) fell in the range of 0.0001 to 0.1 µM; in assay [2] (Table A, read-out: Rat H3 Ki) it was 0.0001 to 0.1 µM.

As for `C[C@@H]1CCCN1CCCOc1ccc(C2=NN(c3ccccc3)C(=O)CC2)cc1` [Example 19], the Ki in assay [1] (Table A) fell in the range of 0.0001 to 0.1 µM; in assay [2] (Table A, read-out: Rat H3 Ki), 0.0001 to 0.1 µM.

As for `O=c1c2ccsc2c(-c2ccc(OCCCN3CCCCC3)cc2)nn1Cc1ccc(Cl)cc1` [Example 37, 5-(4-Chloro-benzyl)-7-[4-(3-piperidin-1-yl-propoxy)-phenyl]-5H-thieno[2,3-d]pyridazin-4-one], the Ki in assay [1] (Table A) lay in the range of 0.0001 to 0.1 µM; in assay [2] (Table A, read-out: Rat H3 Ki) it was 0.101 to 0.5 µM.

As to `O=c1cc(-c2ccc(OCCCN3CCCCC3)cc2)cnn1-c1ccccn1` [Example 95, 5-[4-(3-Piperidin-1-yl-propoxy)-phenyl]-2-pyridin-2-yl-2H-pyridazin-3-one], the Ki is 0.0001 to 0.1 µM in assay [1] (Table B) and 0.0001 to 0.1 µM in assay [2] (Table B, read-out: rat H3 Ki).

With `C[C@@H]1CCCN1CCCOc1ccc2c(c1)CCC1CC(=O)NN=C21` (stereo partly shown) [Example 212, 8-[3-(2-Methyl-pyrrolidin-1-yl)-propoxy]-4,4a,5,6-tetrahydro-2H-benzo[h]cinnolin-3-one], the Ki is 0.0001 to 0.1 µM in assay [1] (Table B) and 0.0001 to 0.1 µM in assay [2] (Table B, read-out: rat H3 Ki).

As for `COCn1ncc(-c2ccc(OC3CCN(C4CCC4)CC3)cc2C)cc1=O` [Example 234, 5-[4-(1-Cyclobutyl-piperidin-4-yloxy)-2-methyl-phenyl]-2-methoxymethyl-2H-pyridazin-3-one], the Ki was 0.0001 to 0.1 µM in assay [1] (Table B) and 0.0001 to 0.1 µM in assay [2] (Table B, read-out: rat H3 Ki).

Consider `CN1CCC(COc2ccc(-c3ccc(=O)n(C)n3)cc2)CC1` [Example 71, 2-Methyl-6-[4-(1-methyl-piperidin-4-ylmethoxy)-phenyl]-2H-pyridazin-3-one], for which the Ki in assay [1] (Table A) is 0.101 to 0.5 µM; in assay [2] (Table A, read-out: Rat H3 Ki), 0.501 to 1 µM.

Take `CC(C)n1nc(-c2ccc(OCCCN3[C@H](C)CC[C@H]3C)cc2)c2sccc2c1=O` [Example 31, 7-{4-[3-((2R,5R)-2,5-Dimethyl-pyrrolidin-1-yl)-propoxy]-phenyl}-5-isopropyl-5H-thieno[2,3-d]pyridazin-4-one]: the Ki fell in the range of 0.0001 to 0.1 µM in assay [1] (Table A) and 0.101 to 0.5 µM in assay [2] (Table A, read-out: Rat H3 Ki).

`Cc1ccc(=O)n(-c2ccc(OCCCN3CCC[C@H]3C)cc2)n1` [Example 201, 6-Methyl-2-{4-[3-((R)-2-methyl-pyrrolidin-1-yl)-propoxy]-phenyl}-2H-pyridazin-3-one]: the inhibitory constant (Ki) in assay [1] (Table B) was 0.0001 to 0.1 µM; in assay [2] (Table B, read-out: rat H3 Ki), 0.101 to 0.5 µM.

Turning to `C[C@@H]1CCCN1CCCOc1ccc(C2=NN(C)C(=O)C3CCCC23)cc1` (stereo partly drawn) [Example 58, 2-Methyl-4-{4-[3-((R)-2-methyl-pyrrolidin-1-yl)-propoxy]-phenyl}-2,4a,5,6,7,7a-hexahydro-cyclopenta[d]pyridazin-1-one], the Ki in assay [1] (Table A) fell in the range of 0.0001 to 0.1 µM; in assay [2] (Table A, read-out: Rat H3 Ki), 0.0001 to 0.1 µM.

In the case of `O=c1cc(-c2ccc(OC3CCNCC3)cc2)cn[nH]1` [Example 105, 5-[4-(Piperidin-4-yloxy)-phenyl]-2H-pyridazin-3-one], the Ki in assay [1] (Table B) is over 1 µM; in assay [2] (Table B, read-out: rat H3 Ki), over 1 µM.

`C[C@@H]1CCCN1CCCOc1ccc(C2=NNC(=O)C3CC23)cc1` (single isomer, unassigned) [Example 246]: the Ki in assay [1] (Table B) lay within 0.0001 to 0.1 µM; in assay [2] (Table B, read-out: rat H3 Ki) it was 0.0001 to 0.1 µM.

The Ki is the equilibrium dissociation constant of an inhibitor or competing ligand from its target.
